The results in this text go back to the NIST ThermoML archive (doi:10.1016/j.fluid.2005.09.009).

± gives the expanded uncertainty stated by the source.

Data set [1] can be described thus: refractive index (Na D-line) (dimensionless). The note with it: 298.15 K; 101.33 kPa; Liquid; Standard Abbe refractometry.
For data set [2] the following is noted: 298.15 K; 101.33 kPa; Liquid.

Regarding `O` [water], the refractive index in data set [1] came out at 1.3325 ± 0.0008.

Regarding `CCO` [ethanol], the mass density in data set [2] was found to be 785.12 ± 0.31 kg/m3. The refractive index in data set [1] stood at 1.3593 ± 0.0007.

On to `C=CC(C)(O)CCC=C(C)C` (stereo not given) [3,7-dimethyl-1,6-octadien-3-ol], for which the mass density in data set [2] is reported as 858.08 ± 2.2 kg/m3. The refractive index in data set [1] was found to be 1.4595 ± 0.0009.
